Drawing on patent US20060122181A1, “Heteroaromatic pentacyclic compound and medicinal use thereof” (Japan Tobacco Inc., priority 2003, published 2006), this text covers melting point and IC50 for 20 compounds.

The structures appear in SMILES notation. A value given as a limit tells only on which side of the number the result lay.

Test system in one data set: not given
Experiment: not given
Conditions: not given
Take `CCCC(CCC)c1ccc(OCc2ccc(-c3csc(CN(CC(=O)O)Cc4nc5ccccc5[nH]4)c3)cc2)cc1` [Example 4-6]: the melting point (usually the temperature of the solid-liquid transition) fell in the range of 153 to 155 °C.

Regarding `CCCC(CCC)c1ccc(OCc2ccc(-c3ccc(CN(CC(=O)O)CC(=O)Nc4ccc(C(C)C)cc4)s3)cc2)cc1` [Example 4-9], the melting point lay in the range of 172 to 174 °C.

Regarding `CCCC(CCC)c1ccc(OCc2ccc(-c3ccc(C(=O)N(CC(=O)O)Cc4nc5ccccc5n4C)s3)cc2)cc1` [Example 4-42], the melting point was in the range of 185 to 188 °C.

With `CCCC(CCC)c1ccc(OCc2ccc(-c3ccc(C(=O)N(CC(=O)O)Cc4ccc(C(C)C)cc4)s3)cc2)cc1` [Example 4-44], the melting point was in the range of 134 to 136 °C.

For `CCCC(CCC)c1ccc(OCc2ccc(-c3ccc(C(=O)N(CC(=O)O)Cc4ccc(N(C)C)cc4)s3)cc2)cc1` [Example 4-45], the melting point lay within 137 to 139 °C.

As for `CCCC(CCC)c1ccc(OCc2ccc(-c3ccc(C(=O)N4CCC(c5ccc(C(=O)O)cc5)CC4)s3)cc2)cc1` [Example 4-53], the melting point fell in the range of 176 to 178 °C.

In turn, `CCCC(CCC)c1ccc(OCc2ccc(-c3csc(CN(CC(=O)O)Cc4nc5ccccc5n4C)c3)cc2)cc1.Cl` [Example 4-54] returned a melting point of 165.7 to 166.8 °C.

In turn, `CCCC(CCC)c1ccc(OCc2ccc(-c3csc(CN(CC(=O)O)Cc4nc5ccccc5n4C)c3)cc2)cc1.O=S(=O)(O)O` [Example 4-55] came in with a melting point of 137.5 to 141.5 °C.

Regarding `CCCC(CCC)c1ccc(OCc2ccc(-c3csc(COc4cc(C(=O)O)ccc4NC(=O)C(C)C)c3)cc2)cc1` [Example 4-57], the melting point was in the range of 153.7 to 154.9 °C.

`CCCC(CCC)c1ccc(OCc2ccc(-c3csc(COc4ccc(C(=O)O)cc4)c3)cc2)cc1` [Example 4-58] yielded a melting point of 194.2 to 195.5 °C.

In turn, `CCCC(CCC)c1ccc(OCc2ccc(-c3csc(CSc4ccc(C(=O)O)cc4)c3)cc2)cc1` [Example 4-60] yielded a melting point of 133.9 to 135.1 °C.

`CCCC(CCC)c1ccc(OCc2ccc(-c3csc(COc4cc(C(=O)O)ccc4N)c3)cc2)cc1` [Example 4-61] showed a melting point of 156.5 to 165.5 °C.

The compound `Cl.O=C(O)C1(c2ccccc2)CCN(Cc2ccc(-c3cn(Cc4ccc(C5CCCCC5)cc4)c4ccccc34)s2)CC1` [Example 4-62] returned a melting point of 227.3 to 233.6 °C.

As for `Cl.O=C(O)CN(Cc1ccccc1)Cc1ccc(-c2cn(Cc3ccc(C4CCCCC4)cc3)c3ccccc23)s1` [Example 4-63], the melting point lay in the range of 161 to 164.3 °C.

In the case of `CCCC(CCC)c1ccc(OCc2ccc(-c3csc(CN(CC(=O)O)S(=O)(=O)N(C)c4ccccc4)c3)cc2)cc1` [Example 4-64], the melting point was in the range of 139 to 140.2 °C.

`CCN(Cc1ccc(C2CCCCC2)cc1)c1ccc(-c2ccc(CN(CC(=O)O)Cc3ccccn3)s2)cc1` [Example 4-66] showed a melting point of 128 to 131 °C.

`CCN(Cc1ccc(C2CCCCC2)cc1)c1ccc(-c2ccc(CN(CCOc3ccccc3)CC(=O)O)s2)cc1` [Example 4-67]: the melting point lay within 141 to 144 °C.

Turning to `CCN(C[C@H]1CC[C@H](c2ccc(C(C)(C)C)cc2)CC1)c1ccc(-c2csc(CN3CCC(c4ccc(C(=O)O)cc4)CC3)c2)cc1` [Example 4-68], the melting point was 225 to 229 °C (dec.).

With `CCCC(CCC)c1ccc(OCc2ccc(-c3csc(CN(CC(=O)O)C(=O)COc4ccc(C(C)C)cc4)c3)cc2)cc1` [Example 4-69], the melting point is 146 to 152 °C.

Another data set has as its target T1, Recombinant human protein tyrosine phosphatase 1B (Homo sapiens, UniProt P18031).
T1 construct: purchased UBI
T1 sequence (P18031 1-435): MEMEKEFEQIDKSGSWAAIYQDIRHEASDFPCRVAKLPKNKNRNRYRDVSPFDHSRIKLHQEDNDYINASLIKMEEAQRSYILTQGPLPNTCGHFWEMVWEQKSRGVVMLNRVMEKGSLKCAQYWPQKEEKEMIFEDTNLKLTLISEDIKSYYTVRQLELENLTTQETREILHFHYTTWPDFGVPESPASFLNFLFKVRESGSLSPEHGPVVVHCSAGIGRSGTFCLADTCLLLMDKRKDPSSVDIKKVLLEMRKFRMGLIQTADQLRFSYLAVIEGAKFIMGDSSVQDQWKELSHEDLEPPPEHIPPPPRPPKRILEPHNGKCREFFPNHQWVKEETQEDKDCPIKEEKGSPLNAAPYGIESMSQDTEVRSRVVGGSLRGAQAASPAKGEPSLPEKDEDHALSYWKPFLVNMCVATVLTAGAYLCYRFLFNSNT
Put plainly: Protein tyrosine phosphatase 1B inhibitory activity (malachite green, phosphorylated insulin receptor peptide substrate). It is filed as biochemical. Conditions: recombinant human PTP1B, 60 min room temperature, absorbance 650 nm. The method, then: Preparation of Assay Buffer:
A 50 mM Tris-HCl buffer (pH 7.5), 50 mM NaCl and 3 mM dithiothreitol (DTT) were prepared.
[…] 0.1, 0.3, 1, 3 and 10 μM of the test compound were prepared and diluted with the above-mentioned assay buffer to the final dimethyl sulfoxide (DMSO) concentration of not more than 1%. As the control, the assay buffer was used.
Preparation of Substrate:
Recombinant human protein tyrosine phosphatase 1B (manufactured by UBI) was diluted with the above-mentioned assay buffer (1.2 ng/25 μl).
The sample (10 μl) prepared as mentioned above and a substrate (25 μl) were successively added to a 96 well plate, and the enzyme (25 μl) prepared as mentioned above was added and mixed. The mixture was incubated at room temperature for 60 min and a malachite green (120 μl, Biomol), which is a color reagent, was added. The mixture was further incubated at room temperature for 20 min to allow for color development. An absorbance at 650 nm was measured on a plate reader based on which the protein tyrosine phosphatase 1B inhibitory activity of the test compound was evaluated.
Take `CCCC(CCC)c1ccc(OCc2ccc(-c3csc(CN(CC(=O)O)Cc4nc5ccccc5[nH]4)c3)cc2)cc1` [Example 4-6]: the half-maximal inhibitory concentration (IC50) (in general, the concentration that inhibits the measured activity by half) was found to be 0.092 µM.

As for `CCCC(CCC)c1ccc(OCc2ccc(-c3ccc(CN(CC(=O)O)CC(=O)Nc4ccc(C(C)C)cc4)s3)cc2)cc1` [Example 4-9], the half-maximal inhibitory concentration (IC50) came out at 0.12 µM.

Consider `CCCC(CCC)c1ccc(OCc2ccc(-c3ccc(C(=O)N(CC(=O)O)Cc4nc5ccccc5n4C)s3)cc2)cc1` [Example 4-42], for which the half-maximal inhibitory concentration (IC50) stood at 0.17 µM.

As to `CCCC(CCC)c1ccc(OCc2ccc(-c3ccc(C(=O)N(CC(=O)O)Cc4ccc(C(C)C)cc4)s3)cc2)cc1` [Example 4-44], the 50% inhibitory concentration (IC50) stood at 0.12 µM.

On to `CCCC(CCC)c1ccc(OCc2ccc(-c3ccc(C(=O)N(CC(=O)O)Cc4ccc(N(C)C)cc4)s3)cc2)cc1` [Example 4-45], for which the concentration for half-maximal inhibition (IC50) is 0.27 µM.

`CCCC(CCC)c1ccc(OCc2ccc(-c3ccc(C(=O)N4CCC(c5ccc(C(=O)O)cc5)CC4)s3)cc2)cc1` [Example 4-53]: the IC50 was determined as 0.07 µM.

Take `CCCC(CCC)c1ccc(OCc2ccc(-c3csc(CN(CC(=O)O)Cc4nc5ccccc5n4C)c3)cc2)cc1.Cl` [Example 4-54]: the IC50 was 0.14 µM.

For the compound `CCCC(CCC)c1ccc(OCc2ccc(-c3csc(CN(CC(=O)O)Cc4nc5ccccc5n4C)c3)cc2)cc1.O=S(=O)(O)O` [Example 4-55], the concentration for half-maximal inhibition (IC50) was 0.17 µM.

Consider `CCCC(CCC)c1ccc(OCc2ccc(-c3csc(COc4cc(C(=O)O)ccc4NC(=O)C(C)C)c3)cc2)cc1` [Example 4-57], for which the IC50 stood at 0.17 µM.

Consider `CCCC(CCC)c1ccc(OCc2ccc(-c3csc(COc4ccc(C(=O)O)cc4)c3)cc2)cc1` [Example 4-58], for which the IC50 stood at 0.19 µM.

Turning to `CCCC(CCC)c1ccc(OCc2ccc(-c3csc(CSc4ccc(C(=O)O)cc4)c3)cc2)cc1` [Example 4-60], the concentration for half-maximal inhibition (IC50) is less than 0.1 µM.

Take `CCCC(CCC)c1ccc(OCc2ccc(-c3csc(COc4cc(C(=O)O)ccc4N)c3)cc2)cc1` [Example 4-61]: the IC50 was found to be 0.25 µM.

In the case of `Cl.O=C(O)C1(c2ccccc2)CCN(Cc2ccc(-c3cn(Cc4ccc(C5CCCCC5)cc4)c4ccccc34)s2)CC1` [Example 4-62], the IC50 was found to be 0.45 µM.

As for `Cl.O=C(O)CN(Cc1ccccc1)Cc1ccc(-c2cn(Cc3ccc(C4CCCCC4)cc3)c3ccccc23)s1` [Example 4-63], the IC50 turned out to be 0.42 µM.

With `CCCC(CCC)c1ccc(OCc2ccc(-c3csc(CN(CC(=O)O)S(=O)(=O)N(C)c4ccccc4)c3)cc2)cc1` [Example 4-64], the half-inhibitory concentration (IC50) came out at 0.24 µM.

On to `CCN(Cc1ccc(C2CCCCC2)cc1)c1ccc(-c2ccc(CN(CC(=O)O)Cc3ccccn3)s2)cc1` [Example 4-66], for which the IC50 was 0.45 µM.

As for `CCN(Cc1ccc(C2CCCCC2)cc1)c1ccc(-c2ccc(CN(CCOc3ccccc3)CC(=O)O)s2)cc1` [Example 4-67], the half-inhibitory concentration (IC50) was found to be 0.23 µM.

With `CCN(C[C@H]1CC[C@H](c2ccc(C(C)(C)C)cc2)CC1)c1ccc(-c2csc(CN3CCC(c4ccc(C(=O)O)cc4)CC3)c2)cc1` [Example 4-68], the 50% inhibitory concentration (IC50) is less than 0.1 µM.

On to `CCCC(CCC)c1ccc(OCc2ccc(-c3csc(CN(CC(=O)O)C(=O)COc4ccc(C(C)C)cc4)c3)cc2)cc1` [Example 4-69], for which the 50% inhibitory concentration (IC50) was 0.15 µM.

As for `CCCC(CCC)c1ccc(OCc2ccc(-c3ccc(CN(CC(=O)O)C(c4ccccc4)c4ccccc4)s3)cc2)cc1` [Example 4-81], the IC50 was less than 0.1 µM.
